Reference: ChEMBL document CHEMBL4418282, “Compounds and methods for inhibiting fascin” (2017)

Each molecule was assayed against Fascin (Homo sapiens) (UniProt Q16658) (assay: Inhibition of purified fascin (unknown origin) assessed as reduction in bundle activity at 50 uM pre-incubated for 30 mins before polymerized actin addition and followed by Alexa fluro 488 phalloidin addition after 30 mins and measured after 1 hr under dark condition relative to control). Details: not given.

Row | inhibition | Structure (SMILES)
1 | < 10% | O=C(Nc1nn(Cc2ccc(C(F)(F)F)cc2)c2ccccc12)c1cccc(Cl)c1
2 | < 10% | Cc1occc1-c1nn(Cc2ccc(C(F)(F)F)cc2)c2ccccc12
3 | < 10% | FC(F)(F)c1ccc(Cn2nc(Br)c3ccccc32)cc1
4 | < 10% | Cc1nocc1C(=O)Nc1nn(Cc2ccc(C(F)(F)F)cc2)c2cncc(Cl)c12
5 | < 10% | Cc1occc1C(=O)Nc1nn(Cc2ccc(C(F)(F)F)cc2)c2cncc(Cl)c12
6 | < 10% | Cc1ccc(-c2nn(Cc3ccc(C(F)(F)F)cc3)c3ccccc23)o1
7 | < 10% | Cc1ccc(-c2ccc(C(=O)Nc3nn(Cc4ccc(C(F)(F)F)cc4)c4ccccc34)o2)cc1
8 | < 10% | O=C(Nc1nn(Cc2ccc(C(F)(F)F)cc2)c2ccccc12)c1ccc(Cl)cc1
9 | < 10% | O=C(Nc1nn(Cc2ccc(C(F)(F)F)cc2)c2cncc(Cl)c12)c1ccoc1
10 | < 10% | CCCC(=O)Nc1nn(Cc2ccc(C(F)(F)F)cc2)c2cncc(Cl)c12
11 | < 10% | CC(=O)Nc1nn(Cc2ccc(C(F)(F)F)cc2)c2cncc(Cl)c12
12 | < 10% | CNc1nn(Cc2ccc(C(F)(F)F)cc2)c2cncc(Cl)c12

The remaining lines, values behind:

Row | Structure (SMILES) | inhibition
13 | FC(F)(F)c1ccc(Cn2nc(-c3ccccc3)c3ccccc32)cc1 | < 10%
14 | O=[N+]([O-])c1cn(Cc2ccc(C(F)(F)F)cc2)c2ccc(Br)cc12 | < 10%
15 | O=[N+]([O-])c1cn(Cc2ccccc2)c2ccc(Br)cc12 | < 10%
16 | FC(F)(F)c1ccc(Cn2nc(-c3ccoc3)c3ccccc32)cc1 | < 10%
17 | Cc1ncsc1C(=O)Nc1nn(Cc2ccc(C#N)cc2)c2ccccc12 | < 10%
18 | N#Cc1ccccc1C(=O)Cc1nn(Cc2ccc(C(F)(F)F)cc2)c2ccccc12 | < 10%
19 | FC(F)(F)c1ccc(Cn2nc(-c3cccc4ccccc34)c3ccccc32)cc1 | < 10%

Each molecule was assayed on 4T1 (assay: Antitumor activity against mouse 4T1 cells implanted in Balb/c mouse assessed as reduction in tumor growth in lungs at 100 mg/kg, administered daily for 2 weeks starting 7 days after tumor implantation and measured on day 28 by methylene blue staining based assay relative to control). Details: read-out: TGI.
Format: functional

Row | Structure (SMILES) | inhibition in vivo at 100 mg/kg
20 | Cc1ncsc1C(=O)Nc1nn(Cc2ccc(C(F)(F)F)cc2)c2ccccc12 | > 90%
21 | Cc1occc1C(=O)Nc1nn(Cc2ccc(C(F)(F)F)cc2)c2ccccc12 [NP-G2-044] | > 90%
